# Measured values from patent US5656629A, “6-substituted pyrazolo (3,4-d)pyrimidin-4-ones and compositions and methods of use thereof” (Sanofi Winthrop, Inc., priority 1995, dated 1997).
# pIC50: −log10 of the molar value.
# Experiments:
# [1] = molecular target: T1, cGMP-PDE V (Homo sapiens, UniProt O76074); assay: cGMP-PDE V inhibition (isozyme isolated from cardiovascular tissue); type: biochemical, various animal species and man; details: for inhibition at 0.01 µM / inhibition at 0.1 µM / inhibition at 1 µM / inhibition at 10 µM: read-out: Percent Inhibition cGMP-PDE V
# T1 construct: isolated from cardiovascular tissues (heart and aorta); from tissue; host or cells: cardiovascular tissues (heart and aorta)
# Description: The cGMP-PDE and other PDE isozymes were isolated from cardiovascular tissues (heart and aorta) of various animal species and man by anion-exchange and affinity chromatography as described by Silver et al., Sec. Messeng. Phos. […] Cyclic Nucleotide Res. 10:69-92.
# [2] = test system: Spontaneously hypertensive rats (SHR); assay: antihypertensive activity in conscious spontaneously hypertensive rats (mean arterial pressure); type: in vivo; details: Rattus norvegicus, SHR iv; for ED25: 5 min, 5 min after dose, cumulative dosing, read-out: ED25, change in mean arterial pressure
# Experimental: After a 2 day recovery from surgery, three baseline blood pressure measurements were made at 5 min intervals in conscious SHR. Compounds to be tested or vehicle were then administered intravenously in a dose-dependent manner (0.3-10 mg base/kg) while arterial pressure was recorded continuously on a polygraph. The mean arterial pressure response was measured 5 minutes after the administration of each dose of the test compound and the next dose given in a cumulative dose fashion. The response to each dose of the test compound was calculated as the difference from the mean of the three baseline measurements.
Compound,inhibition at 0.1 µM [1],inhibition at 1 µM ([1]; 1 μM),pIC50 [1],other results
"CCc1[nH]n(C2CCCC2)c2nc(Cc3cccs3)nc(=O)c1-2 [Example 32, 1-cyclopentyl-3-ethyl-6-(2-thienylmethyl)pyrazolo[3,4-d]pyrimidin-4-one]",58%,89%,,inhibition at 0.01 µM [1]: 24%
"CCc1[nH]n(C2CCCC2)c2nc(Nc3ccccc3)nc(=O)c1-2 [38(d), 1-cyclopentyl-3-ethyl-6-(phenylamino)pyrazolo[3,4-d]pyrimidin-4-one]",,,6.57,
"CCc1[nH]n(C2CCCC2)c2nc(Cc3cccn3C)nc(=O)c1-2 [Example 22, 1-cyclopentyl-3-ethyl-6-(1-methyl-2-pyrrolylmethyl)pyrazolo[3,4-d]pyrimidin-4-one]",,,6.52,
"1-cyclopentyl-3-ethyl-6-[3,5-dimethylamino-4-hydroxyphenylmethyl]pyrazolo[3,4-d]pyrimidin-4-one [Example 14]",,,,Percent Inhibition cGMP-PDE V ([1]; 1 μM): 28%; Percent Inhibition cGMP-PDE V ([1]; 10 μM): 77%
"CCc1[nH]n(C2CCCC2)c2nc(Cc3ccc(C(F)(F)F)cc3)nc(=O)c1-2 [24(b), 1-cyclopentyl-3-ethyl-6-(4-trifluoromethylphenylmethyl) pyrazolo[3,4-d]pyrimidin-4-one]",,,6.74,change in vivo at 10 mg/kg [2]: -8%
"CCc1[nH]n(C2CCCC2)c2nc(CN3CCc4ccccc4C3)nc(=O)c1-2 [15(c), 1-cyclopentyl-3-ethyl-6-(1,2,3,4-tetrahydro-2-isoquinolinylmethyl)pyrazolo[3,4-d]pyrimidin-4-one]",,,5.75,
"CCc1[nH]n(C2CCCC2)c2nc(Cc3ccc(-n4ccnc4)cc3)nc(=O)c1-2 [36(b), 1-cyclopentyl-3-ethyl-6-[4-(1-imidazolyl)phenylmethyl]pyrazolo[3,4-d]pyrimidin-4-one]",26%,62%,,
"CCc1[nH]n(C2CCCC2)c2nc(Cc3ccccn3)nc(=O)c1-2 [Example 9, 1-cyclopentyl-3-ethyl-6-(2-pyridinylmethyl)pyrazolo[3,4-d]pyrimidin-4-one]",,,6.27,
"CCc1[nH]n(C2CCCC2)c2nc(Cc3ccc(NS(C)(=O)=O)cc3)nc(=O)c1-2 [Example 29, 1-cyclopentyl-3-ethyl-6-[4-(methylsulfonylamino)phenylmethyl]pyrazolo[3,4-d]pyrimidin-4-one]",94%,,,inhibition at 0.01 µM [1]: 77%
"CCc1[nH]n(C2CCCC2)c2nc(Cc3ccccc3OC)nc(=O)c1-2 [27(b), 1-cyclopentyl-3-ethyl-6-(2-methoxyphenylmethyl)pyrazolo[3,4-d]pyrimidin-4-one]",25%,73%,,
"CCc1nn(C2CCCC2)c2nc(Cc3cccc(OCCN4CCOCC4)c3)[nH]c(=O)c12 [21(c), 1-cyclopentyl-3-ethyl-6-[3-[2-(4-morpholinyl)ethoxy]phenylmethyl]pyrazolo[3.4-d]pyrimidin-4-one]",,,6.38,
"CCc1[nH]n(C2CCCC2)c2nc(Cc3ccc(OCc4nnn[nH]4)cc3)nc(=O)c1-2 [11(b), 1-cyclopentyl-3-ethyl-6-[4-(5-tetrazolylmethoxy)phenylmethyl]pyrazolo[3,4-d]pyrimidin-4-one]",,,6.51,change in vivo at 10 mg/kg [2]: -4%
"CCc1[nH]n(C2CCCC2)c2nc(Cc3ccc(OC)c(OC)c3)nc(=O)c1-2 [3(b), 1-cyclopentyl-3-ethyl-6-(3,4-dimethoxyphenylmethyl)-pyrazolo[3,4-d)pyrimidin-4-one]",,,7.66,
"CCc1nn(C2CCCC2)c2nc(Cn3cccc3)[nH]c(=O)c12 [Example 5, 1-cyclopentyl-3-ethyl-6-(1-pyrrolylmethyl)-pyrazolo[3,4-d]pyrimidin-4-one]",,,6.51,
"CCc1[nH]n(C2CCCC2)c2nc(Cc3ccsc3)nc(=O)c1-2 [Example 31, 1-cyclopentyl-3-ethyl-6-(3-thienylmethyl)pyrazolo[3,4-d]pyrimidin-4-one]",,,7.52,
"CCc1[nH]n(C2CCCC2)c2nc(Oc3ccccc3)nc(=O)c1-2 [Example 39, 1-cyclopentyl-3-ethyl-6-(phenyloxy)pyrazolo[3,4-d]pyrimidin-4-one]",33%,74%,,
"Cc1[nH]n(C(C)(C)C)c2nc(Cc3ccccc3)nc(=O)c1-2 [37(d), 1-tert-butyl-3-methyl-6-(phenylmethyl)pyrazolo[3,4-d]pyrimidin-4-one]",36%,78%,,

Compound,inhibition at 0.1 µM [1],inhibition at 1 µM ([1]; 1 μM),pIC50 [1],other results
"CCc1nn(C2CCCC2)c2nc(Cn3cnc4ccccc43)[nH]c(=O)c12 [12(b), 1-cyclopentyl-3-ethyl-6-[1-benzimidazolylmethyl]pyrazolo[3,4-d]pyrimidin-4-one]",17%,39%,,
"CCc1[nH]n(C2CCCC2)c2nc(Cc3ccccc3O)nc(=O)c1-2 [Example 30, 1-cyclopentyl-3-ethyl-6-(2-hydroxyphenylmethyl)pyrazolo[3,4-d]pyrimidin-4-one]",43%,73%,,
"CCc1[nH]n(C2CCCC2)c2nc(Cc3ccc(N(C)C)cc3)nc(=O)c1-2 [Example 35, 1-cyclopentyl-3-ethyl-6-(4-dimethylaminophenylmethyl)pyrazolo[3,4-d]pyrimidin-4-one]",34%,53%,,
"CCc1[nH]n(C2CCCC2)c2nc(Cc3c(C)noc3C)nc(=O)c1-2 [28(b), 1-cyclopentyl-3-ethyl-6-(3,5-dimethyl-4-isoxazolylmethyl)pyrazolo[3,4-d]pyrimidin-4-one]",,48%,,
"CCc1[nH]n(C2CCCC2)c2nc(Cc3cccc(O)c3)nc(=O)c1-2 [Example 20, 1-cyclopentyl-3-ethyl-6-(3-hydroxyphenylmethyl)pyrazolo[3,4-d]pyrimidin-4-one]",,,7.07,ED25 [2]: 10.1 mg/kg; change in vivo at 10 mg/kg [2]: -23%
CCc1nn(C2CCCC2)c2nc(Cc3ccc(OCCN4CCOCC4)cc3)[nH]c(=O)c12 [10(b)],,,6.57,change in vivo at 10 mg/kg [2]: -17%
"CCc1[nH]n(C2CCCC2)c2nc(Cc3cccnc3)nc(=O)c1-2 [Example 13, 1-cyclopentyl-3-ethyl-6-[3-pyridinylmethyl]pyrazolo[3,4-d]pyrimidin-4-one]",,,6.18,
"CCc1[nH]n(C2CCCC2)c2nc(Cc3ccc(OCC(=O)O)cc3)nc(=O)c1-2 [8(b), 1-cyclopentyl-3-ethyl-6-[4-(carboxymethoxy)phenylmethyl]pyrazolo[3,4-d]pyrimidin-4-one]",,,5.92,
"CCc1[nH]n(C2CCCC2)c2nc(Cc3cccc(OC)c3)nc(=O)c1-2 [Example 19, 1-cyclopentyl-3-ethyl-6-(3-methoxyphenylmethyl)pyrazolo[3,4-d]pyrimidin-4-one]",,,7.48,ED25 [2]: 11 mg/kg; change in vivo at 10 mg/kg [2]: -21%
"CCc1[nH]n(C2CCCC2)c2nc(Cc3ccncc3)nc(=O)c1-2 [4(b), 1-cyclopentyl-3-ethyl-6-(4-pyridinylmethyl)pyrazolo[3,4-d]pyrimidin-4-one]",,,6.19,
"CCc1[nH]n(C2CCCC2)c2nc(CO)nc(=O)c1-2 [Example 17, 1-cyclopentyl-3-ethyl-6-(hydroxymethyl)pyrazolo[3,4-d]pyrimidin-4-one]",,20%,,inhibition at 10 µM ([1]; 10 μM): 61%
"CCc1[nH]n(C2CCCC2)c2nc(Cc3ccc(OC(=O)c4ccc(CN(CC)CC)cc4)cc3)nc(=O)c1-2 [33(b), 1-cyclopentyl-3-ethyl-6-[4-[4-(diethylaminomethyl)phenylcarbonyloxy]phenylmethyl]pyrazolo[3,4-d]pyrimidin-4-one]",56%,,,ED25 [2]: 9.3 mg/kg; change in vivo at 10 mg/kg [2]: -27%
"CCc1[nH]n(C2CCCC2)c2nc(Cc3ccccc3N)nc(=O)c1-2 [Example 34, 1-cyclopentyl-3-ethyl-6-(2-aminophenylmethyl)pyrazolo[3,4-d]pyrimidin-4-one]",45%,78%,,
"CCc1nn(C2CCCC2)c2nc(Cn3ccnc3)[nH]c(=O)c12 [18(b), 1-cyclopentyl-3-ethyl-6-(1-imidazolylmethyl)pyrazolo[3,4-d]pyrimidin-4-one]",,33%,,
"CCc1nn(C2CCCC2)c2nc(Cn3cccn3)[nH]c(=O)c12 [23(b), 1-cyclopentyl-3-ethyl-6-(1-pyrazolylmethyl)pyrazolo[3,4-d]pyrimidin-4-one]",,33%,,
"CCc1[nH]n(C2CCCC2)c2nc(Cc3ccc([N+](=O)[O-])cc3)nc(=O)c1-2 [25(a), 1-cyclopentyl-3-ethyl-6-(4-nitrophenylmethyl)pyrazolo[3,4-d]pyrimidin-4-one]",,,7.12,change in vivo at 10 mg/kg [2]: -5%
"CCc1nn(C2CCCC2)c2nc(CN3CCCc4ccccc43)[nH]c(=O)c12 [16(b), 1-cyclopentyl-3-ethyl-6-(1,2,3,4-tetrahydro-1-quinolinylmethyl)pyrazolo[3,4-d]pyrimidin-4-one]",,32%,,inhibition at 10 µM ([1]; 10 μM): 90%
